Measurements published in patent US20260225997A1, “IONIZABLE AMINE LIPIDS” (Intellia Therapeutics, Inc., priority 2018, published 2026).
Like-named read-outs stand apart in the source and are kept apart here. Blank lines part the entries; values can stand above or below the compound they belong to.

What was measured:
[1] = pKa measurement of unformulated amine lipid (fluorescence, method of Jayaraman et al.); type: physicochemical; settings: 100 μM in 0.1 M phosphate buffer pH 4.5-9.0
Description: The pKa of each amine lipid was determined according to the method in Jayaraman, et al. (Angewandte Chemie, 2012) with the following adaptations. […] Lipid was diluted to 100 μM in 0.1 M phosphate buffer (Boston Bioproducts) where the pH ranged from 4.5-9.0. Fluorescence intensity was measured using excitation and emission wavelengths of 321 nm and 448 nm.

[2] = tested on: TTR; test: Transthyretin (TTR) ELISA analysis of mouse serum after LNP dosing; type: in vivo; settings: for response vs control in vivo at 0.1 mg/kg / response vs control in vivo at 0.03 mg/kg / inhibition in vivo at 0.03 mg/kg: Mus musculus, iv; for response vs control in vivo at 0.1 mg/kg / response vs control in vivo at 0.03 mg/kg: read-out: Serum TTR % TSS; for inhibition in vivo at 0.03 mg/kg: read-out: Serum TTR (% KD)
Description: (§1) CD-1 female mice, ranging from 6-10 weeks of age were used in each study. Animals were weighed and grouped according to body weight for preparing dosing solutions based on group average weight. LNPs were dosed via the lateral tail vein in a volume of 0.2 mL per animal (approximately 10 mL per kilogram body weight). The animals were periodically observed post dose for adverse effects for at least 24 hours post dose. Animals were euthanized at 6 or 7 days by exsanguination via cardiac puncture under isoflurane anesthesia. Blood was collected into serum separator tubes or into tubes containing buffered sodium citrate for plasma as described herein. For studies involving in vivo editing, liver tissue was collected from each animal for DNA extraction and analysis.
CD-1 female mice were dosed i.v. at 0.1 mpk or 0.3 mpk. […] For animals dosed with G282 targeting TTR, blood and the liver were collected and serum TTR and editing were measured. For animals dosed with G650 targeting B2M, liver was collected and editing was measured.
Blood was collected and the serum was isolated as indicated. The total mouse TTR serum levels were determined using a Mouse Prealbumin (Transthyretin) ELISA Kit (Aviva Systems Biology, Cat. OKIA00111). Briefly, sera were serial diluted with kit sample diluent to a final dilution of 10,000-fold for 0.1 mpk dose and 2,500-fold for 0.3 mpk. This diluted sample was then added to the ELISA plates and the assay was then carried out according to directions.

[3] = tested on: TTR; test: TTR editing in mouse liver by NGS after i.v. LNP delivery of Cas9 mRNA and sgRNA; type: in vivo; settings: CD-1 female mice; for % Editing (TTR, liver): Example 55: 0.1 mpk i.v.
Description: Preparations of various LNP compositions were prepared with amine lipids. In assays for percent liver editing in mice, Cas9 mRNA and chemically modified sgRNA were formulated in LNPs, at either a 1:1 w/w ratio or a 1:2 w/w ratio. LNPs are formulated with a composition of a given ionizable lipid (e.g. an amine lipid), DSPC, cholesterol, and PEG-2k-DMG, with a 6.0 N:P ratio.
as §1
Cohorts of mice were measured for liver editing by Next-Generation Sequencing (NGS).
In brief, to quantitatively determine the efficiency of editing at the target location in the genome, genomic DNA was isolated and deep sequencing was utilized to identify the presence of insertions and deletions introduced by gene editing.
PCR primers were designed around the target site (e.g., B2M), and the genomic area of interest was amplified. Additional PCR was performed according to the manufacturer's protocols (Illumina) to add the necessary chemistry for sequencing. The amplicons were sequenced on an Illumina MiSeq instrument. The reads were aligned to the […] after eliminating those having low quality scores. The resulting files containing the reads were mapped to the reference genome (BAM files), where reads that overlapped the target region of interest were selected and the number of wild type reads versus the number of reads which contain an insertion, substitution, or deletion was calculated.
The editing percentage (e.g., the “editing efficiency” or “percent editing”) is defined as the total number of sequence reads with insertions or deletions over the total number of sequence reads, including wild type.
CD-1 female mice were dosed i.v. at 0.1 mpk or 0.3 mpk. At 6 days post-dose, animals were sacrificed. For animals dosed with G282 targeting TTR, blood and the liver were collected and serum TTR and editing were measured. For animals dosed with G650 targeting B2M, liver was collected and editing was measured.

[4] = Example 60: 0.1 mpk i.v., 6 days post-dose, G502 1:2
[5] = Example 63: 0.03 mpk i.v., 7 days post-dose, G282 1:1
[6] = Example 63: 0.1 mpk i.v., 7 days post-dose, G282 1:1
[7] = 168 h, Example 63: 0.03 mpk i.v., 7 days post-dose, G282 1:1
[8] = 168 h, Example 63: 0.1 mpk i.v., 7 days post-dose, G282 1:1
[9] = Example 58: 0.1 mpk i.v., 6 days post-dose, G282 1:1
[10] = 144 h, Example 58: 0.1 mpk i.v., 6 days post-dose, G282 1:1
[11] = Example 61: 0.1 mpk i.v., 7 days post-dose, G282 1:1
[12] = 168 h, Example 61: 0.1 mpk i.v., 7 days post-dose, G282 1:1
[13] = Example 64: Dose 0.03 mpk (table) i.v., 7 days post-dose, G282 1:1
[14] = 168 h, Example 64: Dose 0.03 mpk (table) i.v., 7 days post-dose, G282 1:1
[15] = Example 55: 0.1 mpk i.v., 7 days post-dose, G282 1:1
[16] = Example 59: 0.1 mpk i.v., 7 days post-dose, G282 1:1
[17] = Example 62: 0.03 mpk i.v., 7 days post-dose, G282 1:2
[18] = Example 62: 0.1 mpk i.v., 7 days post-dose, G282 1:2

Structure (SMILES): CCCCCCCCCOC(=O)CCCCCCCN(CCO)CCCCCCCC(OC(C)CCCCCC)OC(C)CCCCCC (centres unmarked) [Compound 25, nonyl 8-[8,8-bis(1-methylheptoxy)octyl-(2-hydroxyethyl)amino]octanoate]
- pKa [1]: 6.1
- Serum TTR [2, 4]: 985 µg/mL
- response vs control in vivo at 0.1 mg/kg ([2]; 144 h, Example 60: 0.1 mpk i.v., 6 days post-dose, G502 1:2): 69%
- Editing Mean % Indel [3, 4]: 15.3%

Structure (SMILES): CCCCCCCCCOC(=O)CCCCCCCN(CCCCCCC(OCCCCCCCC)OCCCCCCCC)CCNC(C)=O [Compound 41, nonyl 8-((2-acetamidoethyl)(7,7-bis(octyloxy)heptyl)amino)octanoate]
- pKa [1]: 6.82
- Serum TTR [2, 13]: 567.1 µg/mL
- inhibition in vivo at 0.03 mg/kg [2, 14]: 1%
- Editing Mean % Indel [3, 13]: 2.4%

Structure (SMILES): CCCCCCCCCOC(=O)CCCCCCCN(CCO)CCCCCCC(OCCCCCCCC)OCCCCCCCC [Compound 10, nonyl 8-((7,7-bis(octyloxy)heptyl)(2-hydroxyethyl)amino)octanoate]
- pKa [1]: 6.05
- Serum TTR [2, 15]: 206 µg/mL
- Serum TTR (% TSS) [2, 15]: 18 % TSS
- Serum TTR [2, 16]: 80 µg/mL
- Serum TTR [2, 11]: 330 µg/mL
- Serum TTR [2, 17]: 424 µg/mL
- Serum TTR [2, 18]: 179 µg/mL
- Serum TTR [2, 13]: 409.2 µg/mL
- response vs control in vivo at 0.1 mg/kg ([2]; 168 h, Example 59: 0.1 mpk i.v., 7 days post-dose, G282 1:1): 9%
- response vs control in vivo at 0.1 mg/kg [2, 12]: 26%
- response vs control in vivo at 0.03 mg/kg ([2]; 168 h, Example 62: 0.03 mpk i.v., 7 days post-dose, G282 1:2): 67%
- response vs control in vivo at 0.1 mg/kg ([2]; 168 h, Example 62: 0.1 mpk i.v., 7 days post-dose, G282 1:2): 28%
- inhibition in vivo at 0.03 mg/kg [2, 14]: 28.5%
- % Editing (TTR, liver) ([3]; 7 days post-dose, G282 1:1): 50%
- Editing Mean % Indel [3, 16]: 60.1%
- Editing Mean % Indel [3, 11]: 47.2%
- Editing Mean % Indel [3, 17]: 15.6%
- Editing Mean % Indel [3, 18]: 51.3%
- Editing Mean % Indel [3, 13]: 27.2%

Structure (SMILES): CCCCCCCCCOC(=O)CCCCCCCN(CCO)CCCCCCCC(OCCCCCCC)OCCCCCCC [Compound 7, nonyl 8-((8,8-bis(heptyloxy)octyl)(2-hydroxyethyl)amino)octanoate]
- pKa [1]: 6.16
- Serum TTR [2, 15]: 234 µg/mL
- Serum TTR (% TSS) [2, 15]: 21 % TSS
- % Editing (TTR, liver) ([3]; 7 days post-dose, G282 1:1): 50%

Structure (SMILES): CCCCCCCCCOC(=O)CCCCCCCN(CCCCCCC(OCCCCCCCC)OCCCCCCCC)CCCNC(C)=O [Compound 42, nonyl 8-((3-acetamidopropyl)(7,7-bis(octyloxy)heptyl)amino)octanoate]
- pKa [1]: 7.19
- Serum TTR [2, 13]: 571.6 µg/mL
- inhibition in vivo at 0.03 mg/kg [2, 14]: 0.2%
- Editing Mean % Indel [3, 13]: 9.6%

Now from value to compound, other results behind:

- pKa [1]: 6.41
Structure (SMILES): CCCCCCCCOC(CCCCCCCN(CCO)CCCCCCCC(=O)OC(C)CCCCCC)OCCCCCCCC (centres unmarked) [Compound 27, octan-2-yl 8-((8,8-bis(octyloxy)octyl)(2-hydroxyethyl)amino)octanoate]
- Serum TTR [2, 5]: 497.99 µg/mL
- Serum TTR [2, 6]: 197.22 µg/mL
- response vs control in vivo at 0.03 mg/kg [2, 7]: 61.7%
- response vs control in vivo at 0.1 mg/kg [2, 8]: 24.4%
- Editing Mean % Indel [3, 5]: 27.86%
- Editing Mean % Indel [3, 6]: 57.10%

- pKa [1]: 6.46
Structure (SMILES): CCCCCCCCCCCCOC(=O)CCCCN(CCO)CCCCCCCC(OCCCCCCCC)OCCCCCCCC [Compound 14, dodecyl 5-((8,8-bis(octyloxy)octyl)(2-hydroxyethyl)amino)pentanoate]
- Serum TTR [2, 9]: 928 µg/mL
- response vs control in vivo at 0.1 mg/kg [2, 10]: 94%
- Editing Mean % Indel [3, 9]: 12.1%

- pKa [1]: 6.54
Structure (SMILES): CCCCCCCCOC(CCCCCCCN(CCO)CCCCCCCC(=O)OCCCCC)OCCCCCCCC [Compound 29, pentyl 8-((8,8-bis(octyloxy)octyl)(2-hydroxyethyl)amino)octanoate]
- Serum TTR [2, 5]: 718.48 µg/mL
- Serum TTR [2, 6]: 660.46 µg/mL
- response vs control in vivo at 0.03 mg/kg [2, 7]: 89%
- response vs control in vivo at 0.1 mg/kg [2, 8]: 81.8%
- Editing Mean % Indel [3, 5]: 5.76%
- Editing Mean % Indel [3, 6]: 15.96%

- pKa [1]: 6.38
Structure (SMILES): CCCCCCCCCCOC(=O)CCCCCCN(CCO)CCCCCCCC(OCCCCCCCC)OCCCCCCCC [Compound 12, decyl 7-((8,8-bis(octyloxy)octyl)(2-hydroxyethyl)amino)heptanoate]
- Serum TTR [2, 9]: 490 µg/mL
- response vs control in vivo at 0.1 mg/kg [2, 10]: 50%
- Editing Mean % Indel [3, 9]: 33.0%

- pKa [1]: 6.48
Structure (SMILES): CCCCCCCCOC(CCCCCCCN(CCO)CCCCCCCC(=O)OC(CC)CCCC)OCCCCCCCC (centres unmarked) [Compound 30, heptan-3-yl 8-((8,8-bis(octyloxy)octyl)(2-hydroxyethyl)amino)octanoate]
- Serum TTR [2, 5]: 514.23 µg/mL
- Serum TTR [2, 6]: 125.89 µg/mL
- response vs control in vivo at 0.03 mg/kg [2, 7]: 63.7%
- response vs control in vivo at 0.1 mg/kg [2, 8]: 15.6%
- Editing Mean % Indel [3, 5]: 27.64%
- Editing Mean % Indel [3, 6]: 62.48%

- pKa [1]: 6.12
Structure (SMILES): CCCCCCCCCOC(=O)CCCCCCCN(CCO)CCCCCCCCC(OCCCCCCCC)OCCCCCCCC [Compound 9, nonyl 8-((9,9-bis(octyloxy)nonyl)(2-hydroxyethyl)amino octanoate]
- Serum TTR [2, 11]: 218 µg/mL
- response vs control in vivo at 0.1 mg/kg [2, 12]: 17%
- Editing Mean % Indel [3, 11]: 52.1%
